Assay results published in publication PMC11062899, “De novo development of small cyclic peptides that are orally bioavailable” (Nature Chemical Biology, 2023).
“And” between values parts separate entries of the source, which are not always exact repeats. Equal values may be shown once.

Legend:
[1] = target: T1, porcine pepsin (Sus scrofa, UniProt P00791); assay: Peptide stability in simulated gastric fluid (SGF); type: in vitro ADME
T1 construct: 0.32 g of porcine pepsin (Sigma-Aldrich, P7125) was dissolved under gentle agitation; purchased Sigma-Aldrich P7125
In short: (§1)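 Peptide from a 1 mM DMSO stock was added to fluid pre-warmed at 37 °C. SGF was pH 1.2 NaCl with porcine pepsin (0.32 g per 100 ml), and SIF was pH 6.8 potassium phosphate with porcine pancreatin (1 g per 100 ml). Supernatant peptide was quantified by LC–MS, with residual expressed as T1/T0.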

[2] = system: porcine pancreatin; assay: Peptide stability in simulated intestinal fluid (SIF); type: in vitro ADME; details: after 8 h vs 0 h (TIC)
In short: as §1

[3] = as above; type: in vitro ADME, porcine; details: simulated gi fluid; 8 h, 37 °C, pH 6.8; read-out: Proteolytic stability: SIF (8 h) % remaining
In short: as §1

[4] = target: human α-thrombin (Homo sapiens, UniProt P00734); assay: Protease inhibition, Ki for human α-thrombin (fluorogenic substrate Z-Gly-Gly-Arg-AMC); type: biochemical; details: replicates R1-R3
In short: (§2)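 Inhibition was measured as AMC fluorescence from 50 μM substrate, monitored for 30 min at 25 °C, relative to a peptide-free control. Human and rat enzymes were present at 2 nM and 3 nM final, respectively, in 50 mM Tris-HCl pH 7.4, 150 mM NaCl, 10 mM MgCl2, 1 mM CaCl2. Ki derives from fitted IC50 via Cheng–Prusoff.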

[5] = Metabolic stability in rat liver microsomes (RLMs); details: rat, microsomes
[6] = Passive artificial membrane permeability (PAMPA)
[7] = target: T2, rat α-thrombin (Rattus norvegicus, UniProt P18292); assay: Protease inhibition, Ki for rat α-thrombin (fluorogenic substrate Z-Gly-Gly-Arg-AMC); type: biochemical; details: replicates R1-R3
T2 construct: rat α-thrombin (Molecular Innovations) were used at final concentrations of 2 nM and 3 nM; purchased Molecular Innovations
In short: as §2

[8] = peptide 1.33E+02 uM, slope of proteolytic substrate cleavage over time

T1 sequence (P00791 60-385): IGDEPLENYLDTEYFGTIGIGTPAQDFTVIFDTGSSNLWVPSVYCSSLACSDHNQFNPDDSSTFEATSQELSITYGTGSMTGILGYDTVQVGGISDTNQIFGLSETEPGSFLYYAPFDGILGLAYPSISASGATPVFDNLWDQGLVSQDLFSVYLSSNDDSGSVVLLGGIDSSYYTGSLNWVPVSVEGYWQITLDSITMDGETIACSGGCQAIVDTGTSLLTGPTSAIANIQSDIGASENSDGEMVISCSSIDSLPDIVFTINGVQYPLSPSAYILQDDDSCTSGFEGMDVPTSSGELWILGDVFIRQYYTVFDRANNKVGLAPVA

O=C1NCCSCc2cccc(n2)CSCCC(=O)N2CCC[C@H]2C(=O)N2CCN(C(=O)c3ccc(Cl)s3)CC12 (stereo partly shown) [compound 23]
SGF stability, Residual peptide Average ([1]; after 8 h vs 0 h (TIC), average of R1-R3): 98.66 | SGF stability, Residual peptide ([1]; after 8 h vs 0 h (TIC), single replicates R1-R3): 100.45 and 94.90 and 100.63 | remaining at 8 h ([1]; simulated gi fluid, 8 h, 37 °C, pH 1.2, read-out: Proteolytic stability: SGF (8 h) % remaining): 99 ± 3% | SIF stability, Residual peptide Average ([2]; average of R1-R3): 91.31 | SIF stability, Residual peptide ([2]; single replicates R1-R3): 90.99 and 82.41 and 100.52 | remaining at 8 h [3]: 91 ± 9% | Human alpha thrombin inhibition, slope normalized to DMSO ([4]; peptide 1.02E-03 uM): 91.9 and 90.1 and 93.2 | Human alpha thrombin inhibition, slope normalized to DMSO ([4]; peptide 1.04E+00 uM): 79.8 and 81.1 and 79.3 | Human alpha thrombin inhibition, slope normalized to DMSO ([4]; peptide 1.27E-04 uM): 96.4 and 91.3 and 88.2 | Human alpha thrombin inhibition, slope normalized to DMSO ([4]; peptide 1.30E-01 uM): 96.0 and 91.0 and 92.0 | Human alpha thrombin inhibition, slope normalized to DMSO [4, 8]: 8.4 and 8.5 and -2.6 | Human alpha thrombin inhibition, slope normalized to DMSO ([4]; peptide 1.63E-02 uM): 97.2 and 84.3 and 96.8 | Human alpha thrombin inhibition, slope normalized to DMSO ([4]; peptide 1.67E+01 uM): 30.4 and 33.6 and 42.3 | Human alpha thrombin inhibition, slope normalized to DMSO ([4]; peptide 2.03E-03 uM): 97.8 and 93.0 and 96.6 | Human alpha thrombin inhibition, slope normalized to DMSO ([4]; peptide 2.08E+00 uM): 73.0 and 70.9 and 73.9 | Human alpha thrombin inhibition, slope normalized to DMSO ([4]; peptide 2.54E-04 uM): 99.0 and 94.8 and 97.2 | Human alpha thrombin inhibition, slope normalized to DMSO ([4]; peptide 2.60E-01 uM): 91.4 and 88.4 and 89.4 | Human alpha thrombin inhibition, slope normalized to DMSO ([4]; peptide 3.18E-05 uM): 91.8 and 117.4 and 98.4 | Human alpha thrombin inhibition, slope normalized to DMSO ([4]; peptide 3.26E-02 uM): 94.8 and 91.6 and 96.2 | Human alpha thrombin inhibition, slope normalized to DMSO ([4]; peptide 3.33E+01 uM): 18.0 and 18.8 and 20.4 | Human alpha thrombin inhibition, slope normalized to DMSO ([4]; peptide 4.07E-03 uM): 93.4 and 91.5 and 94.8 | Human alpha thrombin inhibition, slope normalized to DMSO ([4]; peptide 4.17E+00 uM): 59.5 and 58.3 and 61.9 | Human alpha thrombin inhibition, slope normalized to DMSO ([4]; peptide 5.09E-04 uM): 97.5 and 92.8 and 99.8 | Human alpha thrombin inhibition, slope normalized to DMSO ([4]; peptide 5.21E-01 uM): 87.6 and 85.1 and 86.8 | Human alpha thrombin inhibition, slope normalized to DMSO ([4]; peptide 6.36E-05 uM): 100.5 and 90.1 and 98.6 | Human alpha thrombin inhibition, slope normalized to DMSO ([4]; peptide 6.51E-02 uM): 92.5 and 91.3 and 93.7 | Human alpha thrombin inhibition, slope normalized to DMSO ([4]; peptide 6.67E+01 uM): 11.3 and 18.5 and 12.0 | Human alpha thrombin inhibition, slope normalized to DMSO ([4]; peptide 8.14E-03 uM): 94.9 and 92.1 and 95.9 | Human alpha thrombin inhibition, slope normalized to DMSO ([4]; peptide 8.33E+00 uM): 50.4 and 48.8 and 50.8 | microsomal CLint ([5]; CL (ul/min/mg protein) R1, RLM CL, replicate R1): 73.8 µL/min/mg | microsomal CLint ([5]; CL (ul/min/mg protein) R2, RLM CL, replicate R2): 70.2 µL/min/mg | microsomal CLint ([5]; CL (ul/min/mg protein) R3, RLM CL, replicate R3): 77.1 µL/min/mg | half-life ([5]; Half Life (min) R1, RLM metabolic stability, replicate R1, 0-60 min): 18.8 min | half-life ([5]; Half Life (min) R2, RLM metabolic stability, replicate R2, 0-60 min): 19.7 min | half-life ([5]; Half Life (min) R3, RLM metabolic stability, replicate R3, 0-60 min): 18 min | half-life ([5]; Metabolic stability: Half life T1/2 (min), RLMs, mean and SD, three measurements): 18.8 ± 0.7 min | microsomal CLint ([5]; Metabolic stability: RLM CL (ul/min/mg), RLMs, mean and SD, three measurements): 74 ± 3 µL/min/mg | PAMPA permeability: % permeability ([6]; 50 μM, 12–18 h, acceptor concentration relative to equilibrium): 63 ± 5% | Papp at 50 μM ([6]; PAMPA, pH 7.4): 6.46 ×10⁻⁶ cm/s | Permeability% Average ([6]; PAMPA, average of R1-R3): 62.6% | Permeability% R1 ([6]; PAMPA, replicate R1, TIC of top well sample relative to sample at theoretical equilibrium): 59.23% | Permeability% R3 ([6]; PAMPA, replicate R3, TIC of top well sample relative to sample at theoretical equilibrium): 59.76% | Rat alpha thrombin inhibition, slope normalized to DMSO [7, 8]: 2.4 and 2.8 and 19.0 | Rat alpha thrombin inhibition, slope normalized to DMSO ([7]; peptide 1.67E+01 uM): 12.7 and 12.2 and 32.4 | Rat alpha thrombin inhibition, slope normalized to DMSO ([7]; peptide 2.08E+00 uM): 50.5 and 50.4 and 69.3 | Rat alpha thrombin inhibition, slope normalized to DMSO ([7]; peptide 3.33E+01 uM): 7.4 and 6.9 and 24.6 | Rat alpha thrombin inhibition, slope normalized to DMSO ([7]; peptide 4.17E+00 uM): 35.4 and 36.2 and 53.3 | Rat alpha thrombin inhibition, slope normalized to DMSO ([7]; peptide 6.67E+01 uM): 5.7 and 4.4 and 22.7 | Rat alpha thrombin inhibition, slope normalized to DMSO ([7]; peptide 8.33E+00 uM): 23.3 and 24.4 and 38.9
